This note sets out measurements from ChEMBL document CHEMBL1681683, “Synthesis and biological evaluation of 1,4-benzodiazepin-2-ones with antitrypanosomal activity” (Bioorg Med Chem, 2011).

Molecules are shown by their SMILES. Converted amounts (≈) assume the structure as drawn.

Assay [1] relates to Trypanosoma brucei brucei. Description: Antitrypanosomal activity against bloodstream form of Trypanosoma brucei brucei […] after 48 hrs by alamar blue assay. The assay is classed as functional.
The test system of assay [2] is Trypanosoma brucei brucei. Description: Antitrypanosomal activity against bloodstream form of Trypanosoma brucei brucei s427 after 48 hrs by alamar blue assay. It counts as functional, organism-based. Conditions: s427, 48 h; call rule not given here.
The subject of assay [3] is Trypanosoma brucei brucei. Briefly: Resistance factor, ratio of IC50 for Trypanosoma brucei brucei B48 to IC50 for wild-type bloodstream form of Trypanosoma brucei brucei s427. The assay is classed as functional.
The test system of assay [4] is Trypanosoma brucei brucei. Briefly: Antitrypanosomal activity against TbAT1 and HAPT1-deficient Trypanosoma brucei brucei B48 after 48 hrs by alamar blue assay. It counts as functional, organism-based.
Assay [5] relates to Trypanosoma brucei brucei. Description: Antitrypanosomal activity against TbAT1-deficient Trypanosoma brucei brucei after 48 hrs by alamar blue assay. The assay is classed as functional, organism-based.
In assay [6] the test system is Trypanosoma brucei brucei. Description: Resistance factor, ratio of IC50 for TbAT1-deficient bloodstream form of Trypanosoma brucei brucei to IC50 for wild-type bloodstream form of Trypanosoma brucei brucei s427. It counts as functional.
The mark [7] stands for this setting: Trypanosoma brucei, B48, 48 h, read-out: IC50.
[8] abbreviates: Trypanosoma brucei, 48 h, read-out: IC50.

`CC(C)[C@@H]1N=C(C2CCCCC2)c2cc(NC(=N)N)ccc2N(Cc2ccc(NC(=N)N)cc2)C1=O`: it took 0.78 µM (≈ 0.381 µg/mL) to inhibit growth in assay [1] (MIC).
Consider `O=C1Nc2ccccc2C(c2ccccc2)=N[C@H]1Cc1ccccc1`, for which the figures for the half-inhibitory concentration (IC50) in assay [2], in assay [4] (setting [7]) and in assay [5] (setting [8]) were 13800 nM, 9230 nM and 7840 nM, respectively. In assay [1], the MIC is 6.25 µM (≈ 2.04 µg/mL). Further, the “Ratio IC50” value is on record as 0.67 in assay [3] and 0.57 in assay [6].
As for `O=C1Nc2ccccc2C(c2ccccc2)=N[C@@H]1Cc1ccccc1`, the minimal inhibitory concentration (MIC) in assay [1] amounted to 50 µM (≈ 16.3 µg/mL).
On the same count and under the same terms, the figure for `CC(C)[C@H]1N=C(c2ccccc2)c2ccccc2NC1=O` is 200 µM (≈ 55.7 µg/mL); for `CC(C)[C@@H]1N=C(c2ccccc2)c2ccccc2NC1=O` it is 100 µM (≈ 27.8 µg/mL).
Still for that read-out and setting: the figure for `CC(C)C1=NCC(=O)Nc2ccccc21` is more than 400 µM.
Same read-out and setting: for `CC(C)C1=N[C@@H](Cc2ccccc2)C(=O)Nc2ccccc21` the value was 50 µM (≈ 14.6 µg/mL); for `CC(C)[C@@H]1N=C(C2CCCCC2)c2ccccc2NC1=O`, 25 µM (≈ 7.11 µg/mL).
As to `CC(C)[C@@H]1N=C(C2CCCCC2)c2cc([N+](=O)[O-])ccc2NC1=O`, in assay [1], 12.5 µM (≈ 4.12 µg/mL) was the least that counted as inhibitory (MIC).
The same measure, in the same setting: the figure for `O=C1Nc2ccccc2C(C2CCCCC2)=N[C@H]1Cc1ccccc1` is 12.5 µM (≈ 4.16 µg/mL).
Same read-out and setting: for `O=C1Nc2ccccc2C(c2ccccn2)=N[C@H]1Cc1ccccc1` the value was 100 µM (≈ 32.7 µg/mL); for `CC(C)[C@@H]1N=C(c2ccccc2)c2ccccc2N(C)C1=O`, 100 µM (≈ 29.2 µg/mL).
On the same count and under the same terms, the figure for `CC(C)[C@@H]1N=C(c2ccccc2)c2ccccc2N(Cc2ccccc2)C1=O` is 200 µM (≈ 73.7 µg/mL).
`CC(C)[C@@H]1N=C(c2ccccc2)c2ccccc2N(Cc2ccccc2-c2ccccc2)C1=O` displayed an MIC in assay [1] of 12.5 µM (≈ 5.56 µg/mL).
`CC(C)[C@@H]1N=C(c2ccccc2)c2ccccc2N(Cc2cccc3cccnc23)C1=O` came in with an MIC in assay [1] of 25 µM (≈ 10.5 µg/mL).
On the same count and under the same terms, for `CC(C)[C@H]1N=C(c2ccccc2)c2ccccc2N(C)C1=O` the value was 200 µM (≈ 58.5 µg/mL); for `CC(C)[C@H]1N=C(c2ccccc2)c2ccccc2N(Cc2ccccc2)C1=O`, 12.5 µM (≈ 4.61 µg/mL).
The same measure, in the same setting: the figure for `CN1C(=O)[C@H](Cc2ccccc2)N=C(c2ccccc2)c2ccccc21` is 50 µM (≈ 17 µg/mL); for `O=C1[C@H](Cc2ccccc2)N=C(c2ccccc2)c2ccccc2N1Cc1ccccc1` it is 6.25 µM (≈ 2.6 µg/mL).
The same measure, in the same setting: for `O=C1[C@H](Cc2ccccc2)N=C(c2ccccc2)c2ccccc2N1Cc1ccc(-c2ccccc2)cc1` the value was 6.25 µM (≈ 3.08 µg/mL).
Consider `O=C1[C@H](Cc2ccccc2)N=C(c2ccccc2)c2ccccc2N1Cc1cccc(-c2ccccc2)c1`, for which the minimum inhibitory concentration (MIC) in assay [1] turned out to be 25 µM (≈ 12.3 µg/mL).
`O=C1[C@H](Cc2ccccc2)N=C(c2ccccc2)c2ccccc2N1Cc1ccccc1-c1ccccc1` displayed an MIC in assay [1] of 6.25 µM (≈ 3.08 µg/mL).
Same read-out and setting: the figure for `O=C1[C@H](Cc2ccccc2)N=C(c2ccccc2)c2ccccc2N1Cc1cccc2cccnc12` is 25 µM (≈ 11.7 µg/mL); for `N#CCN1C(=O)[C@H](Cc2ccccc2)N=C(c2ccccc2)c2ccccc21` it is 3.1 µM (≈ 1.13 µg/mL).
`O=C(O)CN1C(=O)[C@H](Cc2ccccc2)N=C(c2ccccc2)c2ccccc21` showed a minimal inhibitory concentration (MIC) in assay [1] of 50 µM (≈ 19.2 µg/mL).
`CN1C(=O)[C@@H](Cc2ccccc2)N=C(c2ccccc2)c2ccccc21` registered an MIC in assay [1] of 400 µM (≈ 136 µg/mL).
The same measure, in the same setting: the figure for `O=C1[C@@H](Cc2ccccc2)N=C(c2ccccc2)c2ccccc2N1Cc1ccccc1` is 12.5 µM (≈ 5.21 µg/mL); for `O=C1[C@H](COCc2ccccc2)N=C(c2ccccc2)c2ccccc2N1Cc1ccc(-c2ccccc2)cc1` it is 25 µM (≈ 13.1 µg/mL).
In turn, `O=C1[C@H](COCc2ccccc2)N=C(c2ccccc2)c2ccccc2N1Cc1cccc(-c2ccccc2)c1` yielded an MIC in assay [1] of 25 µM (≈ 13.1 µg/mL).
The same measure, in the same setting: for `O=C1[C@H](COCc2ccccc2)N=C(c2ccccc2)c2ccccc2N1Cc1cccc2cccnc12` the value was 12.5 µM (≈ 6.22 µg/mL); for `CC(C)C1=NCC(=O)N(C)c2ccccc21`, 400 µM (≈ 86.5 µg/mL); for `CC(C)C1=N[C@@H](Cc2ccccc2)C(=O)N(C)c2ccccc21`, 25 µM (≈ 7.66 µg/mL).
Still for that read-out and setting: the figure for `O=C1[C@H](Cc2ccccc2)N=C(C2CCCCC2)c2ccccc2N1Cc1ccccc1` is 6.25 µM (≈ 2.64 µg/mL).
`Nc1ccc(CN2C(=O)[C@H](Cc3ccccc3)N=C(c3ccccc3)c3ccccc32)cc1`: the MIC in assay [1] came to 12.5 µM (≈ 5.39 µg/mL).
The compound `Nc1cccc(CN2C(=O)[C@H](Cc3ccccc3)N=C(c3ccccc3)c3ccccc32)c1` showed a minimum inhibitory concentration (MIC) in assay [1] of 6.25 µM (≈ 2.7 µg/mL).
Same read-out and setting: for `Nc1ccccc1CN1C(=O)[C@H](Cc2ccccc2)N=C(c2ccccc2)c2ccccc21` the value was 6.25 µM (≈ 2.7 µg/mL); for `CC(C)[C@@H]1N=C(C2CCCCC2)c2ccccc2N(Cc2ccc(N)cc2)C1=O`, 6.25 µM (≈ 2.43 µg/mL).
Still for that read-out and setting: for `CC(C)[C@@H]1N=C(C2CCCCC2)c2cc(N)ccc2N(Cc2ccc(N)cc2)C1=O` the value was 6.25 µM (≈ 2.53 µg/mL); for `Nc1ccc(CN2C(=O)[C@H](Cc3ccccc3)N=C(C3CCCCC3)c3ccccc32)cc1`, 6.25 µM (≈ 2.73 µg/mL); for `Nc1cccc(CN2C(=O)[C@H](Cc3ccccc3)N=C(C3CCCCC3)c3ccccc32)c1`, 6.25 µM (≈ 2.73 µg/mL).
Still for that read-out and setting: the figure for `Nc1ccc(CN2C(=O)[C@H](Cc3ccccc3)N=C(c3ccccn3)c3ccccc32)cc1` is 25 µM (≈ 10.8 µg/mL); for `CC(C)[C@@H]1N=C(C2CCCCC2)c2cc(N)ccc2NC1=O` it is 100 µM (≈ 29.9 µg/mL).
`N=C(N)Nc1ccc(CN2C(=O)[C@H](Cc3ccccc3)N=C(c3ccccc3)c3ccccc32)cc1`: the figures for the 50% inhibitory concentration (IC50) in assay [2], in assay [4] (setting [7]) and in assay [5] (setting [8]) were 490 nM, 1310 nM and 640 nM, respectively. Besides, the minimal inhibitory concentration (MIC) in assay [1] is 0.78 µM (≈ 0.369 µg/mL). Moreover, the “Ratio IC50” value in assay [3] is 2.68; in assay [6], 1.29.
Regarding `N=C(N)Nc1cccc(CN2C(=O)[C@H](Cc3ccccc3)N=C(c3ccccc3)c3ccccc32)c1`, the half-inhibitory concentration (IC50) in assay [2] was 270 nM; in assay [4] (setting [7]) it was 940 nM; in assay [5] (setting [8]), 390 nM. It took 0.78 µM (≈ 0.369 µg/mL) to inhibit growth in assay [1] (MIC). Further, the entries for the “Ratio IC50” value in assay [3] and in assay [6] were 3.52 and 1.45, respectively.
For `N=C(N)Nc1ccccc1CN1C(=O)[C@H](Cc2ccccc2)N=C(c2ccccc2)c2ccccc21`, the minimum inhibitory concentration (MIC) in assay [1] turned out to be 1.56 µM (≈ 0.739 µg/mL).
Still for that read-out and setting: for `CC(C)[C@@H]1N=C(C2CCCCC2)c2ccccc2N(Cc2ccc(NC(=N)N)cc2)C1=O` the value was 6.25 µM (≈ 2.7 µg/mL); for `N=C(N)Nc1ccc(CN2C(=O)[C@H](Cc3ccccc3)N=C(C3CCCCC3)c3ccccc32)cc1`, 0.78 µM (≈ 0.374 µg/mL).
As for `N=C(N)Nc1cccc(CN2C(=O)[C@H](Cc3ccccc3)N=C(C3CCCCC3)c3ccccc32)c1`, the IC50 in assay [2] was 330 nM; in assay [4] (setting [7]) it was 930 nM; in assay [5] (setting [8]), 510 nM. The MIC in assay [1] was 1.56 µM (≈ 0.748 µg/mL). For the same compound, the “Ratio IC50” value in assay [3] worked out at 2.8; in assay [6] it was 1.53.
In assay [1], `N=C(N)Nc1ccc(CN2C(=O)[C@H](Cc3ccccc3)N=C(c3ccccn3)c3ccccc32)cc1` returned a minimal inhibitory concentration (MIC) of 3.13 µM (≈ 1.49 µg/mL).
Same read-out and setting: the figure for `CC(C)[C@@H]1N=C(C2CCCCC2)c2cc(NC(=N)N)ccc2NC1=O` is 1.56 µM (≈ 0.533 µg/mL); for `N=C(N)NCCC[C@@H]1N=C(c2ccccc2)c2ccccc2NC1=O` it is 400 µM (≈ 134 µg/mL).
The same measure, in the same setting: the figure for `O=C(CN1C(=O)[C@H](Cc2ccccc2)N=C(c2ccccc2)c2ccccc21)N1CCN(c2ncccn2)CC1` is 12.5 µM (≈ 6.63 µg/mL); for `O=C(CN1C(=O)[C@H](Cc2ccccc2)N=C(c2ccccc2)c2ccccc21)N1CCN(c2ccccn2)CC1` it is 6.25 µM (≈ 3.31 µg/mL); for `O=C(CN1C(=O)[C@H](Cc2ccccc2)N=C(c2ccccc2)c2ccccc21)N1CCNCC1` it is 12.5 µM (≈ 5.66 µg/mL).
In the case of `Nc1nc(N)nc(Nc2ccc([As]3SCC(CO)S3)cc2)n1` (stereo not given) [MELARSOPROL], the 50% inhibitory concentration (IC50) entry in assay [4] and in assay [5] was “Not Active” throughout.
For the compound `N=C(N)c1ccc(OCCCCCOc2ccc(C(=N)N)cc2)cc1` [PENTAMIDINE], the 50% inhibitory concentration (IC50) entry in assay [4] and in assay [5] was “Not Active” in each case.
On to `O=C1CN=C(c2ccccc2)c2ccccc2N1` [RO-052921], for which, in assay [1], the MIC worked out at 400 µM (≈ 94.5 µg/mL).
Same read-out and setting: for `Cc1ccc(C(=O)Nc2ccc(S(=O)(=O)O)c3cc(S(=O)(=O)O)cc(S(=O)(=O)O)c23)cc1NC(=O)c1cccc(NC(=O)Nc2cccc(C(=O)Nc3cc(C(=O)Nc4ccc(S(=O)(=O)O)c5cc(S(=O)(=O)O)cc(S(=O)(=O)O)c45)ccc3C)c2)c1` [SURAMIN HEXASODIUM] the value was 0.13 µM.
